Our source for the EC50 values is patent US6949543B2, “Amide derivative” (Yamanouchi Pharmaceutical Co., Ltd., priority 2000, dated 2005).

This assay concerns VZV (strain CaQu). As to the kind of experiment: Anti-VZV activity assay (plaque reduction in HEF cells). The format is cell-based, varicella zoster virus. The settings on record: Human alphaherpesvirus 3, 3 to 4 days culture, plaque count, read-out: EC50 (concentration to inhibit 50% of the plaques). The protocol:
This assay was carried out in accordance with the method described by Shigeta S. (The Journal of Infectious Diseases, 147, 3, 576-584 (1983). Illustratively, HEF cells were seeded a 96 well microtiter plate at 10,000 cells per well using a propagation medium and cultured at 37° C. for 4 days in an atmosphere of 5% CO2 until monolayers were formed. After washing the cells with a maintaining medium, the cells were inoculated with 100 μl/well of VZV (strain CaQu) which had been diluted to 20 to 30 pfu/100 μl with the maintaining medium. The plate was centrifuged at 2,000 rpm for 20 minutes at room temperature and then incubated at 37° C. for 3 hours in an atmosphere of 5% CO2 to infect with VZV. After washing three times with 100 μl/well of the maintaining medium, 100 μl of each test drug diluted to an appropriate concentration with the maintaining medium was added to each well. After culturing the cells at 37° C. for 3 to 4 days in an atmosphere of 5% CO2, the cells were fixed with 100 μl/well of 10% formalin/PBS for 2 to 3 hours. After discarding the fixing solution and culture supernatant and subsequently washing the plate with water, a staining solution (0.025% Crystal Violet) was added in 50 μl/well to carry out 2 to 3 minutes for staining, and then the plate was washed with water and dried at 37° C. The HEF cells infected with VZV cause cell death, and plaques comprising dead cells are formed in the monolayer HEF cells. The number of plaques was counted under a microscope, and EC50 value of the test drug was calculated as a concentration to inhibit 50% of the plaques.
In the case of `Nc1nc(-c2ccc(NC(=O)CN(C(=O)C3CC=C(F)CC3)c3ccc4scnc4c3)cc2)cs1` (stereo not shown) [Example 115], the EC50 amounted to 28 nM. Consider `Nc1nc(-c2ccc(NC(=O)CN(C(=O)c3ccncn3)c3ccc4scnc4c3)cc2)cs1` [Example 118], for which the EC50 turned out to be 59 nM.

As for `Nc1nc(-c2ccc(NC(=O)CN(C(=O)C3CCSCC3)c3ccc4scnc4c3)cc2)cs1` [Example 111], the EC50 came out at 26 nM.

Turning to `Nc1nc(-c2ccc(NC(=O)CN(C(=O)C3CCOCC3)c3ccc4scnc4c3)cc2)cs1` [Example 110], the EC50 is 49 nM.

Consider `Nc1nc(-c2ccc(NC(=O)CN(C(=O)C3CCSc4ccccc43)c3ccc4scnc4c3)cc2)cs1` (stereo not shown) [Example 113], for which the EC50 was determined as 40 nM. For the molecule `Nc1nc(-c2ccc(NC(=O)CN(C(=O)c3ccc(F)nc3)c3ccc4scnc4c3)cc2)cs1` [Example 117], the EC50 was 65 nM. Take `Nc1nc2c(ncn2COCCO)c(=O)[nH]1` [ACV, Acyclovir, reference compound]: the EC50 amounted to 4300 nM. For the molecule `Nc1nc(-c2ccc(NC(=O)CN(C(=O)C3CCCCC3)c3ccc4ncsc4c3)cc2)cs1` [Example 114], the EC50 is 70 nM. For `Nc1nc(-c2ccc(NC(=O)CN(C(=O)c3ccncc3)c3ccc4scnc4c3)cc2)cs1` [Example 108], the EC50 turned out to be 25 nM.

With `Nc1nc(-c2ccc(NC(=O)CN(C(=O)C3CCC(F)(F)CC3)c3ccc4scnc4c3)cc2)cs1` [Example 116], the EC50 stood at 33 nM.
